From patent US11076597B2, “High stress resistant plant growth regulator and preparation method and use thereof” (SHANGHAI INSTITUTES FOR BIOLOGICAL SCIENCES, CHINESE …, priority 2015, dated 2021)
“Also recorded” adds a separate entry of the source.

Tests used:
corn = assay: Soil drought experiment, corn; assay type: in vivo; conditions: 50 μM sprayed once a day for two days; 4 days of drought; FIG. 14b
Procedure: Soil drought experiments used for compound 0428 on soybean and maize were similar to that used for compound 0224 on soybeans, with only one plant contained in each pot. All soybean plants were long-day cultured at 26° C. Watering was stopped after the plant had three leaves in each of three groups and the plants with consistent growth were selected for drought treatment. As for corn, watering was stopped during the small bell-mouthed period for drought treatment. A solution containing 0.05% tween-20 and 50 μM (+)-0428 or 0.05% Tween-20 and 0.05% DMSO (control) was sprayed once on leaf surface on the first day and the second day of the drought, respectively, with a spray amount of 4 ml/pot. Meanwhile the pot position was also changed. The soybeans were re-watered 9 days after the drought, the corn was re-watered 4 days after the drought, and the photos were taken the next day.
In another group of experiments, soil drought experiments were performed on soybeans with three leaves in three groups or corn plants during the small trumpet period of the same size.

[1] = test system: PYL receptor triple mutant (pyr1;pyl1;pyl4) seeds; assay: Seed germination, PYL receptor triple mutant; assay type: in vivo, Arabidopsis thaliana; conditions: 1 μM in 1/2 MS solid medium, 6 days after sowing; FIG. 3
Procedure: Take the compounds 0428 and 0224 of the present invention as examples. The seeds of Arabidopsis thaliana Col-0 ecotype and PYL receptor triple mutant (pyr1;pyl1;pyl4) were sterilized with NaClO and placed at 4° C. for 3 days of the vernalization, and then sown in ½ MS solid medium containing 1 μM (+)-ABA/0224 compound or 0.05% DMSO (control) or in ½ MS solid medium containing 2 μM (+)-ABA/compound 0428 of the present invention or 0.05% DMSO (control). Two lines of plant were sown simultaneously on each medium of 6 cm diameter, with 15-20 seeds sown for each line and 4 replicates for each compound. Culture medium was placed at 22° C. with long-day culture. The seeds germinated on a solid medium containing 1 μM (+)-ABA/0224 compound were photographed 6 days after sowing, and seeds germinated on solid medium containing 2 μM (+)-ABA/0428 compound were photographed 9 days after sowing.

cotton = assay: Soil drought experiment, cotton; assay type: in vivo; conditions: 20 μM sprayed once every 3 days; re-watering after 6 days of drought; FIG. 9
Procedure: Soybean, cotton and wheat for leaf transpiration experiments were used simultaneously for soil drought experiments, each pot was filled with the same weight of soil to reduce experimental error. All the soybean plants were subjected to a long-day culture at 26° C. 14 days after sowing, watering was stopped and the plants with the consistent growth condition were selected for drought treatment. At the start of the drought, a solution containing 0.1% Tween-20 and 20 μM (+)-ABA/0224/0304 or 0.1% Tween-20 and 0.05% DMSO (control) was sprayed onto the leaf surface once with a spray amount of 4 ml solution/pot. Meanwhile, the position of the pot was changed and re-watered 6 days after the drought, and the photos were taken 1 day after re-watering. The drought experiment of cotton was similar to that of soybeans, watering was stopped 25 days after sowing, the plants with the consistent growth condition were selected for drought treatment. At the start of the drought, a solution containing 0.1% Tween-20 and 20 μM (+)-ABA/0224 or 0.1% Tween-20 and 0.05% DMSO (control) was sprayed onto the leaf surface once with a spray amount of 4 ml solution/pot, and then sprayed once every 3 days. Meanwhile, the position of the pot was changed and re-watered 6 days after the drought, and the photos were taken before re-watering and 1 day after re-watering. […]

| SMILES | growth after drought and re-watering (corn) | inhibition of seed germination of pyr1;pyl1;pyl4 triple mutant [1] | growth after drought and re-watering (cotton) |
| --- | --- | --- | --- |
| CCCN1C(=O)OCc2cc(NS(=O)(=O)Cc3c(F)c(F)c(C)c(F)c3F)ccc21 [Compound 0428] | significantly better growth after re-watering than that in the DMSO-sprayed control group | – | – |
| CCCN1C(=O)OC(C)c2cc(NS(=O)(=O)Cc3c(F)c(F)c(C)c(F)c3F)ccc21 (stereo not drawn) [Compound 0224] | – | significantly reduced; also recorded: could not inhibit the seed germination of PYR/PYL triple mutant | significantly better than that of the control group (DMSO) or that of the cotton treated with the same concentration of ABA; also recorded: significantly better growth after re-watering than that in the DMSO-sprayed control group and the plants sprayed with the same concentration of ABA |
